Measured values published in the supplement of paper PMC10307832.

How the values were obtained:
Test in all cases: relative viability (nuclei count vs DMSO), 5 days (fraction); higher = more cells survive
[1] = compound: CC[C@H](C)N1C=C(C2=C(C=C(C=C21)C3=CN=C(C=C3)N4CCNCC4)C(=O)NCC5=C(C=C(NC5=O)C)C)C [GSK126] + CC1(C)CCC(c2ccc(Cl)cc2)=C(CN2CCN(c3ccc(C(=O)NS(=O)(=O)c4ccc(N[C@H](CCN5CCOCC5)CSc5ccccc5)c(S(=O)(=O)C(F)(F)F)c4)cc3)CC2)C1 [Navitoclax] (partner 0.5 µM)
Outline: (§1)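 Each reported value is a median over duplicate plates. It expresses relative viability: treated-well nuclei count divided by vehicle-well nuclei count. Lung cancer cell lines in 1536-well plates were dosed by pin tool a day after seeding, alone with one drug or with a fixed anchor-drug dose plus five library-drug doses (not always all listed) in √10 steps, and nuclei were counted after 5 days.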

[2] = compound: NS(=O)(=O)OC[C@@H]1C[C@@H](n2ccc3c(N[C@H]4CCc5ccccc54)ncnc32)C[C@@H]1O [MLN4924] + NC(=O)Nc1cc(-c2cccc(F)c2)sc1C(=O)N[C@H]1CCCNC1 [AZD7762] (partner 0.2 µM)
Outline: as §1

[3] = compound: NS(=O)(=O)OC[C@@H]1C[C@@H](n2ccc3c(N[C@H]4CCc5ccccc54)ncnc32)C[C@@H]1O [MLN4924] + Nc1ncn([C@H]2C[C@H](O)[C@@H](CO)O2)c(=O)n1 [Decitabine] (partner 2 µM)
Outline: as §1

[4] = compound: NS(=O)(=O)OC[C@@H]1C[C@@H](n2ccc3c(N[C@H]4CCc5ccccc54)ncnc32)C[C@@H]1O [MLN4924] + O=C(CCCCCCC(=O)Nc1ccccc1)NO [Vorinostat] (partner 1 µM)
Outline: as §1

Cell Line | relative viability ([1]; first compound 0.08 µM) | relative viability ([1]; first compound 0.253 µM) | relative viability ([1]; first compound 0.8 µM) | relative viability ([1]; first compound 2.53 µM) | relative viability ([1]; first compound 8 µM) | relative viability ([2]; first compound 0.04 µM) | relative viability ([2]; first compound 0.1265 µM) | relative viability ([2]; first compound 0.4 µM) | relative viability ([2]; first compound 1.265 µM) | relative viability ([2]; first compound 4 µM) | relative viability ([3]; first compound 0.04 µM) | relative viability ([3]; first compound 0.1265 µM) | relative viability ([3]; first compound 0.4 µM) | relative viability ([3]; first compound 1.265 µM) | relative viability ([3]; first compound 4 µM) | relative viability ([4]; first compound 0.04 µM) | relative viability ([4]; first compound 0.1265 µM) | relative viability ([4]; first compound 0.4 µM) | relative viability ([4]; first compound 1.265 µM) | relative viability ([4]; first compound 4 µM)
NCI-H1666 | 1.08 | 0.982 | 1.02 | 0.833 | 1.12 | 0.726 | 0.755 | 0.614 | 0.356 | 0.362 | 0.699 | 0.622 | 0.417 | 0.393 | 0.389 | 0.697 | 0.623 | 0.653 | 0.443 | 0.444
HCC-78 | 1.01 | 0.711 | 0.832 | 0.741 | 0.804 | 0.665 | 0.754 | 0.981 | 0.265 | 0.251 | 0.685 | 0.775 | 0.485 | 0.27 | 0.244 | 0.442 | 0.309 | 0.5 | 0.245 | 0.225
LU99A | 0.926 | 0.812 | 0.705 | 0.777 | 0.766 | 0.28 | 0.214 | 0.185 | 0.154 | 0.114 | 0.595 | 0.298 | 0.341 | 0.176 | 0.14 | 0.514 | 0.381 | 0.3 | 0.119 | 0.106
RERF-LC-KJ | 1.29 | 1.02 | 1.18 | 0.956 | 0.828 | 0.941 | 0.738 | 0.256 | 0.182 | 0.253 | 0.592 | 0.497 | 0.24 | 0.182 | 0.236 | 0.579 | 0.328 | 0.205 | 0.192 | 0.236
NCI-H2126 | 0.915 | 0.919 | 0.812 | 0.852 | 0.934 | 1.02 | 1.02 | 0.767 | 0.49 | 0.369 | 0.526 | 0.49 | 0.425 | 0.293 | 0.231 | 0.814 | 0.869 | 0.555 | 0.237 | 0.267
LXF-289 | 0.979 | 0.912 | 0.935 | 0.986 | 0.981 | 1.06 | 0.775 | 0.691 | 0.113 | 0.0848 | 0.346 | 0.323 | 0.28 | 0.183 | 0.133 | 0.654 | 0.506 | 0.462 | 0.143 | 0.115
BEN | 0.0742 | 0.0598 | 0.0517 | 0.0958 | 0.0522 | 0.66 | 0.76 | 0.561 | 0.321 | 0.264 | 0.517 | 0.436 | 0.383 | 0.288 | 0.243 | 0.434 | 0.463 | 0.431 | 0.268 | 0.238
NCI-H1993 | 0.981 | 0.931 | 0.754 | 1.06 | 0.892 | 0.756 | 0.572 | 0.424 | 0.369 | 0.405 | 0.666 | 0.523 | 0.451 | 0.424 | 0.422 | 0.645 | 0.26 | 0.29 | 0.309 | 0.314
LCLC-97TM1 | 0.587 | – | 0.379 | 0.525 | 0.798 | 0.338 | 0.22 | 0.0891 | 0.0605 | 0.0696 | 0.188 | 0.156 | 0.133 | 0.0597 | 0.0565 | 0.742 | 0.503 | 0.0752 | 0.0454 | 0.0589
HCC-827 | 1.07 | 1.03 | 0.987 | 0.967 | 0.95 | 0.687 | 0.556 | 0.374 | 0.195 | 0.151 | 0.336 | 0.308 | 0.218 | 0.15 | 0.2 | 0.805 | 0.716 | 0.636 | 0.242 | 0.215
NCI-H1975 | 1.04 | 1.18 | 0.94 | 0.998 | 0.892 | 0.636 | 0.973 | 1.54 | 1.79 | 0.756 | 0.413 | 0.429 | 0.309 | 0.237 | 0.201 | 0.706 | 0.704 | 0.993 | 0.559 | 0.248
